Experimental data reported in PubChem BioAssay AID330 (DTP/NCI, 2004).
Where “and” joins values, the source holds several entries; their conditions need not be identical. Identical values can stand only once. Toxic doses and inconclusive results are not listed.

Test system: P388 leukemia ip, CD2F1 mice, survival T/C
Assay: NCI In Vivo Anticancer Drug Screen. Data for tumor model P388 Leukemia (intraperitoneal) in CD2F1 (CDF1) mice
Settings: endpoint: median survival time, higher = longer survival
Method in brief: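 Mice carrying the transplanted tumor received test compound or vehicle. Survival was recorded in each group, and the value is the treated-group measurement divided by that of the vehicle-treated control group.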

[1] = dose: 200.0 mg/kg/injection, schedule: Q01DX009 (ip), vehicle: Klucel (hydroxypropylcellulose) (HPC)
[2] = dose: 60.0 mg/kg/injection, schedule: Q01DX005 (ip), vehicle: saline with Tween-80
[3] = dose: 120.0 mg/kg/injection, schedule: Q01DX005 (ip), vehicle: saline with Tween-80
[4] = dose: 240.0 mg/kg/injection, schedule: Q01DX005 (ip), vehicle: saline with Tween-80
[5] = dose: 12.5 mg/kg/injection, schedule: Q01DX009 (ip), vehicle: water
[6] = dose: 25.0 mg/kg/injection, schedule: Q01DX009 (ip), vehicle: water
[7] = dose: 50.0 mg/kg/injection, schedule: Q01DX009 (ip), vehicle: water
[8] = dose: 100.0 mg/kg/injection, schedule: Q01DX009 (ip), vehicle: water
[9] = dose: 25.0 mg/kg/injection, schedule: Q01DX009 (ip), vehicle: Klucel (hydroxypropylcellulose) (HPC)
[10] = dose: 50.0 mg/kg/injection, schedule: Q01DX009 (ip), vehicle: saline with Tween-80
[11] = dose: 100.0 mg/kg/injection, schedule: Q01DX009 (ip), vehicle: saline with Tween-80
[12] = dose: 200.0 mg/kg/injection, schedule: Q01DX009 (ip), vehicle: saline with Tween-80
[13] = dose: 50.0 mg/kg/injection, schedule: Q01DX005 (ip), vehicle: saline with Tween-80
[14] = dose: 100.0 mg/kg/injection, schedule: Q01DX005 (ip), vehicle: saline with Tween-80
[15] = dose: 200.0 mg/kg/injection, schedule: Q01DX005 (ip), vehicle: saline with Tween-80

NC(=S)N/N=C/c1nc2ccccc2[nH]1
T/C (dose: 25.0 mg/kg/injection, schedule: Q04DX003 (ip), vehicle: saline with Tween-80): 100 % of control
T/C (dose: 50.0 mg/kg/injection, schedule: Q04DX003 (ip), vehicle: saline with Tween-80): 100 % of control
T/C (dose: 100.0 mg/kg/injection, schedule: Q04DX003 (ip), vehicle: saline with Tween-80): 106 % of control
T/C (dose: 200.0 mg/kg/injection, schedule: Q04DX003 (ip), vehicle: saline with Tween-80): 91 % of control

C/C(Br)=C(\C(=O)O)S(=O)(=O)O
T/C (dose: 5.0 mg/kg/injection, schedule: Q01DX009 (ip), vehicle: saline with Tween-80): 106 % of control
T/C (dose: 10.0 mg/kg/injection, schedule: Q01DX009 (ip), vehicle: saline with Tween-80): 97 % of control
T/C (dose: 20.0 mg/kg/injection, schedule: Q01DX009 (ip), vehicle: saline with Tween-80): 99 % of control

C=C1C(=O)OC2/C=C(\C)CC/C=C(\C=O)C(OC(=O)C(C)C)C(OC(=O)C(C)(C)O)C12 (centres undefined)
T/C (dose: 5.0 mg/kg/injection, schedule: Q01DX009 (ip), vehicle: other): 116 % of control
T/C (dose: 10.0 mg/kg/injection, schedule: Q01DX009 (ip), vehicle: other): 112 % of control
T/C (dose: 20.0 mg/kg/injection, schedule: Q01DX009 (ip), vehicle: other): 112 % of control

CCCCCCCCCCCC(O)CCCC(O)CC(O)CC1CC2CC(CC(=O)O2)O1 (centres undefined)
T/C (dose: 4.0 mg/kg/injection, schedule: Q01DX009 (ip), vehicle: Klucel (hydroxypropylcellulose) (HPC)): 100 % of control
T/C (dose: 8.0 mg/kg/injection, schedule: Q01DX009 (ip), vehicle: Klucel (hydroxypropylcellulose) (HPC)): 99 % of control
T/C (dose: 16.0 mg/kg/injection, schedule: Q01DX009 (ip), vehicle: Klucel (hydroxypropylcellulose) (HPC)): 95 % of control
T/C (dose: 32.0 mg/kg/injection, schedule: Q01DX009 (ip), vehicle: Klucel (hydroxypropylcellulose) (HPC)): 95 % of control
T/C (dose: 64.0 mg/kg/injection, schedule: Q01DX009 (ip), vehicle: Klucel (hydroxypropylcellulose) (HPC)): 94 % of control

CCC(C)N(CCNc1cc(OC)cc2cccnc12)CC(C)C (centres undefined)
T/C (dose: 12.5 mg/kg/injection, schedule: Q01DX005 (ip), vehicle: saline): 104 % of control
T/C (dose: 25.0 mg/kg/injection, schedule: Q01DX005 (ip), vehicle: saline): 104 % of control
T/C (dose: 50.0 mg/kg/injection, schedule: Q01DX005 (ip), vehicle: saline): 101 % of control and 95 % of control

CCCCCCCCCCCCOC(=O)c1ccc(N)cc1
T/C (dose: 50.0 mg/kg/injection, schedule: Q01DX009 (ip), vehicle: Klucel (hydroxypropylcellulose) (HPC)): 98 % of control
T/C (dose: 100.0 mg/kg/injection, schedule: Q01DX009 (ip), vehicle: Klucel (hydroxypropylcellulose) (HPC)): 101 % of control
T/C [1]: 95 % of control

C=C1C=CN(C(C)=O)C(OC(C)=O)C1SC(C)(C)C (centres undefined)
T/C [2]: 97 % of control
T/C [3]: 95 % of control
T/C [4]: 97 % of control

Cc1ccc(S(=O)(=O)N/N=C/c2ccc(O)c(S(=O)(=O)O)c2)cc1
T/C [5]: 97 % of control
T/C [6]: 101 % of control
T/C [7]: 101 % of control
T/C [8]: 110 % of control
T/C (dose: 200.0 mg/kg/injection, schedule: Q01DX009 (ip), vehicle: water): 99 % of control

C[n+]1ccccc1NC(=O)c1ccccc1
T/C (dose: 61.5 mg/kg/injection, schedule: Q01DX001 (ip), vehicle: saline): 100 % of control
T/C (dose: 123.0 mg/kg/injection, schedule: Q01DX001 (ip), vehicle: saline): 104 % of control
T/C (dose: 246.0 mg/kg/injection, schedule: Q01DX001 (ip), vehicle: saline): 104 % of control

NNC(=O)c1ccccc1Cl
T/C (dose: 6.25 mg/kg/injection, schedule: Q01DX009 (ip), vehicle: Klucel (hydroxypropylcellulose) (HPC)): 97 % of control
T/C (dose: 6.25 mg/kg/injection, schedule: Q01DX009 (ip), vehicle: saline): 100 % of control
T/C (dose: 12.5 mg/kg/injection, schedule: Q01DX009 (ip), vehicle: Klucel (hydroxypropylcellulose) (HPC)): 96 % of control
T/C (dose: 12.5 mg/kg/injection, schedule: Q01DX009 (ip), vehicle: saline): 100 % of control
T/C [9]: 100 % of control

O=C1C(c2ccccc2)=S=C2Sc3ccccc3N12
T/C [10]: 105 % of control
T/C [11]: 102 % of control
T/C [12]: 95 % of control

COc1c(C)c(=O)n2c3ccccc3n(C)c2c1C#N
T/C [2]: 103 % of control
T/C [3]: 107 % of control
T/C [4]: 99 % of control

COc1cc([N+](=O)[O-])c(S(=O)(=O)O)cc1NS(=O)(=O)c1ccc(C)cc1
T/C [2]: 110 % of control
T/C [3]: 101 % of control
T/C [4]: 97 % of control

Cc1ccc(S(=O)(=O)N(C)C)cc1NC1=NCCO1
T/C (dose: 50.0 mg/kg/injection, schedule: Q01DX001 (ip), vehicle: saline with Tween-80): 95 % of control
T/C (dose: 100.0 mg/kg/injection, schedule: Q01DX001 (ip), vehicle: saline with Tween-80): 95 % of control
T/C (dose: 200.0 mg/kg/injection, schedule: Q01DX001 (ip), vehicle: saline with Tween-80): 100 % of control

Cn1cccc1[N+](=O)[O-]
T/C (dose: 12.5 mg/kg/injection, schedule: Q01DX009 (ip), vehicle: saline with Tween-80): 100 % of control
T/C (dose: 25.0 mg/kg/injection, schedule: Q01DX009 (ip), vehicle: saline with Tween-80): 101 % of control
T/C [10]: 100 % of control and 104 % of control
T/C [11]: 101 % of control
T/C [12]: 108 % of control

COC(=O)C(CP(C)(C)=O)C(N=C(C)C(F)(F)F)(c1ccccc1)c1ccccc1 (centres undefined)
T/C (dose: 50.0 mg/kg/injection, schedule: Q01DX005 (ip), vehicle: Klucel (hydroxypropylcellulose) (HPC)): 100 % of control
T/C (dose: 100.0 mg/kg/injection, schedule: Q01DX005 (ip), vehicle: Klucel (hydroxypropylcellulose) (HPC)): 100 % of control
T/C (dose: 200.0 mg/kg/injection, schedule: Q01DX005 (ip), vehicle: Klucel (hydroxypropylcellulose) (HPC)): 107 % of control

CCOC(=O)c1cc(OCC)c(OCC)c(OCC)c1[N+](=O)[O-]
T/C (dose: 50.0 mg/kg/injection, schedule: Q01DX009 (ip), vehicle: saline + Tween-80 + alcohol): 98 % of control
T/C (dose: 100.0 mg/kg/injection, schedule: Q01DX009 (ip), vehicle: saline + Tween-80 + alcohol): 100 % of control
T/C (dose: 200.0 mg/kg/injection, schedule: Q01DX009 (ip), vehicle: saline + Tween-80 + alcohol): 100 % of control

Nc1ccc(S(=O)(=O)NC2C(O)OC(CO)C(O)C2O)cc1 (centres undefined)
T/C [13]: 98 % of control
T/C [14]: 96 % of control
T/C [15]: 97 % of control

O=C1Cc2cc3c(cc2C=C2CCCN12)OCO3
T/C (dose: 6.25 mg/kg/injection, schedule: Q01DX009 (ip), vehicle: water): 100 % of control
T/C [5]: 100 % of control
T/C [6]: 103 % of control
T/C [7]: 106 % of control
T/C [8]: 100 % of control

O=[N+]([O-])c1ccc([Se]c2ncccn2)c([N+](=O)[O-])c1
T/C (dose: 25.0 mg/kg/injection, schedule: Q04DX003 (ip), vehicle: saline): 104 % of control
T/C (dose: 50.0 mg/kg/injection, schedule: Q04DX003 (ip), vehicle: saline): 104 % of control
T/C (dose: 100.0 mg/kg/injection, schedule: Q04DX003 (ip), vehicle: saline): 100 % of control and 117 % of control
T/C (dose: 200.0 mg/kg/injection, schedule: Q04DX003 (ip), vehicle: saline): 100 % of control

CSC(=S)/C=C1\SC=CN1C
T/C (dose: 25.0 mg/kg/injection, schedule: Q04DX002 (ip), vehicle: saline with Tween-80): 96 % of control
T/C (dose: 50.0 mg/kg/injection, schedule: Q04DX002 (ip), vehicle: saline with Tween-80): 100 % of control
T/C (dose: 100.0 mg/kg/injection, schedule: Q04DX002 (ip), vehicle: saline with Tween-80): 100 % of control

CCOC(=O)CC1=NC(=Nc2ccc(Cl)c(Cl)c2)SC1
T/C [13]: 103 % of control
T/C [14]: 104 % of control
T/C [15]: 100 % of control

O=C1CN(c2ccccc2)C(=O)CN1/N=C/c1ccc(Cl)cc1
T/C [10]: 91 % of control
T/C [11]: 99 % of control
T/C [12]: 102 % of control

CCn1c2ccccc2c2cc(NC(N)=S)ccc21
T/C (dose: 12.5 mg/kg/injection, schedule: Q01DX005 (ip), vehicle: saline with Tween-80): 100 % of control
T/C (dose: 25.0 mg/kg/injection, schedule: Q01DX005 (ip), vehicle: saline with Tween-80): 102 % of control
T/C [13]: 100 % of control and 98 % of control

O=C1[C@@H]2C3C=CC([C@H]4C(=O)N(CO)C(=O)[C@@H]34)[C@@H]2C(=O)N1CO
T/C [9]: 114 % of control
T/C [1]: 152 % of control and 160 % of control

C1=CCOCOC1
T/C [10]: 102 % of control and 109 % of control (2×)
T/C [11]: 104 % of control and 109 % of control and 116 % of control
T/C [12]: 111 % of control
